Assay [1] in a line: Pore forming activity across black lipid bilayer membranes assessed as induction of variation in membrane current by measuring pore conductance at 5 ug/ml.
In assay [2] the test system is Bacillus subtilis. The experiment in a line: Antibacterial activity against Bacillus subtilis assessed as inhibition of DNA synthesis at 2 mg/L after 50 mins by [3H]thymidine incorporation assay. Format: functional. (Dividing cells build labelled thymidine or BrdU into new DNA.)
Assay [3] deals with Bacillus subtilis. Description: Antibacterial activity against Bacillus subtilis assessed as inhibition of RNA synthesis at 2 mg/L after 50 mins by [3H]-uridine incorporation assay. Type of assay: functional.
Assay [4] has as its system Bacillus subtilis. Description: Antibacterial activity against Bacillus subtilis assessed as inhibition of peptidoglycan synthesis at 2 mg/L after 50 mins by [3H]-N-acetylglucosamine incorporation assay. Format: functional.
Assay [5] deals with Bacillus subtilis. Description: Antibacterial activity against Bacillus subtilis assessed as inhibition of plasma membrane lipids synthesis at 2 mg/L after 50 mins by [3H]-sodium acetate incorporation assay. Type of assay: functional.
Assay [6] has as its system Bacillus subtilis. Description: Antibacterial activity against Bacillus subtilis assessed as inhibition of protein synthesis at 2 mg/L after 50 mins by [35S]-methionine incorporation assay. Format: functional.
The subject of assay [7] is Escherichia coli. Description: Antibacterial activity against Escherichia coli CCM 3954 after 24 hrs by microdilution method. Format: functional. Particulars: CCM 3954, 24 h. A general note: Broth dilution looks for growth in wells or tubes with falling amounts of substance.
Assay [8] deals with Pseudomonas aeruginosa. Description: Antibacterial activity against Pseudomonas aeruginosa CCM 3955 after 24 hrs by microdilution method. Type of assay: functional. The note with it: CCM 3955, 24 h.
A further assay deals with Enterococcus faecalis. The experiment in a line: Antibacterial activity against Enterococcus faecalis CCM 4224 after 24 hrs by microdilution method. The note with it: CCM 4224, 24 h. Format: functional.
Assay [9] has as its system Staphylococcus aureus. Description: Antibacterial activity against Staphylococcus aureus CCM 4223 after 24 hrs by microdilution method. The note with it: CCM 4223, 24 h. Format: functional.
Assay [10] relates to Bacillus subtilis. The experiment in a line: Antibacterial activity against Bacillus subtilis after 24 hrs by microdilution method. Type of assay: functional.
The test system of another assay is Streptococcus agalactiae. Description: Antibacterial activity against Streptococcus agalactiae after 24 hrs by microdilution method. Type of assay: functional.
Assay [11] deals with Escherichia coli. Description: Antibacterial activity against Escherichia coli 16702 after 24 hrs by microdilution method. Format: functional. The note with it: Escherichia coli, 16702, 24 h.
Assay [12] relates to Pseudomonas aeruginosa. Description: Antibacterial activity against Pseudomonas aeruginosa 16575 after 24 hrs by microdilution method. Type of assay: functional. The note with it: Pseudomonas aeruginosa, 16575, 24 h.
The subject of assay [13] is Staphylococcus aureus. The experiment in a line: Antibacterial activity against methicillin-resistant Staphylococcus aureus 4591 clinical isolates after 24 hrs by microdilution method. Type of assay: functional. Particulars: Staphylococcus aureus, 4591, 24 h.
Assay [14] relates to Staphylococcus haemolyticus. The experiment in a line: Antibacterial activity against fluoroquinolne-resistant Staphylococcus haemolyticus 16568 after 24 hrs by microdilution method. Type of assay: functional. The note with it: Staphylococcus haemolyticus, 16568, 24 h.
In assay [15] the test system is Staphylococcus epidermidis. The experiment in a line: Antibacterial activity against Staphylococcus epidermidis 8700/B after 24 hrs by microdilution method. Format: functional.
In the next assay the test system is Enterococcus faecium. Description: Antibacterial activity against vancomycin-resistant Enterococcus faecium 419/ana clinical isolates after 24 hrs by microdilution method. Type of assay: functional.
Another assay has as its system Salmonella enteritidis. The experiment in a line: Antibacterial activity against Salmonella enteritidis S2-25 after 24 hrs by microdilution method. Format: functional, Salmonella enterica subsp. enterica serovar Enteritidis. Particulars: Salmonella enterica, S2-25, 24 h.
The test system of the next assay is Acinetobacter baumannii. The experiment in a line: Antibacterial activity against Acinetobacter baumannii A3-08 after 24 hrs by microdilution method. Type of assay: functional. Particulars: A3-08, 24 h.
The test system of assay [16] is Stenotrophomonas maltophilia. Description: Antibacterial activity against Stenotrophomonas maltophilia S2-23 after 24 hrs by microdilution method. Type of assay: functional. Particulars: S2-23, 24 h.
A further assay concerns Burkholderia multivorans. The experiment in a line: Antibacterial activity against Burkholderia multivorans after 24 hrs by microdilution method. Type of assay: functional.
Another assay concerns Lipid bilayer. The experiment in a line: Binding affinity to DOPG large unilamellar vesicle assessed as carboxyfluorescein leakage at 10 mg/L after 20 secs by fluorescence-based assay relative to control.
For assay [17], the system named is Bacillus subtilis. Description: Antibacterial activity against Bacillus subtilis assessed as inhibition of DNA synthesis at 100 mg/L after 50 mins by [3H]thymidine incorporation assay. Format: functional.
For assay [18], the system named is Bacillus subtilis. Description: Antibacterial activity against Bacillus subtilis assessed as inhibition of RNA synthesis at 100 mg/L after 50 mins by [3H]-uridine incorporation assay. Type of assay: functional.
For assay [19], the system named is Bacillus subtilis. Description: Antibacterial activity against Bacillus subtilis assessed as inhibition of peptidoglycan synthesis at 100 mg/L after 50 mins by [3H]-N-acetylglucosamine incorporation assay. Type of assay: functional.
Assay [20] has as its system Bacillus subtilis. The experiment in a line: Antibacterial activity against Bacillus subtilis assessed as inhibition of plasma membrane lipids synthesis at 100 mg/L after 50 mins by [3H]-sodium acetate incorporation assay. Format: functional.
Assay [21] deals with Bacillus subtilis. Description: Antibacterial activity against Bacillus subtilis assessed as inhibition of protein synthesis at 100 mg/L after 50 mins by [35S]-methionine incorporation assay. Type of assay: functional.

The structures appear in SMILES notation. In brackets after ≈: the same amount, converted by molar mass. Activity calls are given as the source filed them. The rule behind the calls is not given here.

For the compound `CCCCCCCCCC(=O)N[C@@H](Cc1c[nH]c2ccccc12)C(=O)N[C@@H](CC(N)=O)C(=O)N[C@@H](CC(=O)O)C(=O)N[C@@H]1C(=O)NCC(=O)N[C@@H](CCCN)C(=O)N[C@@H](CC(=O)O)C(=O)N[C@H](C)C(=O)N[C@@H](CC(=O)O)C(=O)NCC(=O)N[C@H](CO)C(=O)N[C@@H]([C@H](C)CC(=O)O)C(=O)N[C@@H](CC(=O)c2ccccc2N)C(=O)O[C@@H]1C`, the Activity in [1] was 500 pS.
Turning to `CC1(C)S[C@@H]2[C@H](NC(=O)[C@H](N)c3ccccc3)C(=O)N2[C@H]1C(=O)O`, the inhibition entry with Bacillus subtilis [2], in the assay with Bacillus subtilis [3], in the assay on Bacillus subtilis [4], in the assay on Bacillus subtilis [5] and in the assay on Bacillus subtilis [6] was “Active” throughout.
One may read the MIC as the least concentration at which growth counts as inhibited. Low values mean greater potency, high ones weaker potency. Turning to `CCCCCCCCCCCCCCOP(=O)(CCN(CCCNC(=N)N)CCCNC(=N)N)OC[C@H]1O[C@@H](n2ccc(=O)[nH]c2=O)[C@H](O)[C@@H]1O` (some centres undefined), the MIC turned out to be 3.13 mg/L (≈ 4.2 µM) in the assay on Escherichia coli [7]; 3.13 mg/L (≈ 4.2 µM) with Pseudomonas aeruginosa [8]; 12.5 mg/L (≈ 16.8 µM) against Enterococcus faecalis; 6.25 mg/L (≈ 8.38 µM) in the assay on Staphylococcus aureus [9]; 1.56 mg/L (≈ 2.09 µM) in the assay with Bacillus subtilis [10]; 3.13 mg/L (≈ 4.2 µM) in the assay with Streptococcus agalactiae. Also, the minimal inhibitory concentration (MIC) in the assay on Escherichia coli [11] is 3.13 mg/L (≈ 4.2 µM); with Pseudomonas aeruginosa [12] it was 6.25 mg/L (≈ 8.38 µM); against Staphylococcus aureus [13] it was 6.25 mg/L (≈ 8.38 µM); in assay [14], 3.13 mg/L (≈ 4.2 µM); in assay [15] it was 3.13 mg/L (≈ 4.2 µM); with Enterococcus faecium, 50 mg/L (≈ 67 µM). Further, the MIC came out at 3.13 mg/L (≈ 4.2 µM) in the assay with Salmonella enteritidis, 12.5 mg/L (≈ 16.8 µM) against Acinetobacter baumannii, 12.5 mg/L (≈ 16.8 µM) in [16] and 100 mg/L (≈ 134 µM) in the assay with Burkholderia multivorans. For the same compound, in the assay with Lipid bilayer, the result was Active.
With `C/C=C/C/C=C/CCC(=O)[C@H]1O[C@H]1C(N)=O`, the inhibition entry in the assay with Bacillus subtilis [17], with Bacillus subtilis [18], with Bacillus subtilis [19], in the assay on Bacillus subtilis [20] and in the assay on Bacillus subtilis [21] was “Active” each time.
For the compound `CO[C@H]1/C=C/O[C@@]2(C)Oc3c(C)c(O)c4c(O)c(c(/C=N/N5CCN(C)CC5)c(O)c4c3C2=O)NC(=O)/C(C)=C\C=C\[C@H](C)[C@H](O)[C@@H](C)[C@@H](O)[C@@H](C)[C@H](OC(C)=O)[C@@H]1C`, the inhibition result in the assay with Bacillus subtilis [2], in the assay on Bacillus subtilis [3], in the assay on Bacillus subtilis [4], with Bacillus subtilis [5] and with Bacillus subtilis [6] was “Active” each time.
`CCCCCCCCCCCCCOP(=O)(CCN(CCCNC(=N)N)CCCNC(=N)N)OC[C@H]1O[C@@H](n2ccc(=O)[nH]c2=O)[C@H](O)[C@@H]1O` (some centres undefined): the minimum inhibitory concentration (MIC) in the assay with Escherichia coli [7] amounted to 12.5 mg/L (≈ 17.1 µM); with Pseudomonas aeruginosa [8], 3.13 mg/L (≈ 4.28 µM); against Enterococcus faecalis, 25 mg/L (≈ 34.2 µM); with Staphylococcus aureus [9], 6.25 mg/L (≈ 8.54 µM); against Bacillus subtilis [10] it was 1.56 mg/L (≈ 2.13 µM); against Streptococcus agalactiae it was 3.13 mg/L (≈ 4.28 µM). The minimal inhibitory concentration (MIC) was 12.5 mg/L (≈ 17.1 µM) against Escherichia coli [11]; 25 mg/L (≈ 34.2 µM) with Pseudomonas aeruginosa [12]; 12.5 mg/L (≈ 17.1 µM) in the assay on Staphylococcus aureus [13]; 3.13 mg/L (≈ 4.28 µM) in assay [14]; 6.25 mg/L (≈ 8.54 µM) in [15]; 50 mg/L (≈ 68.3 µM) in the assay on Enterococcus faecium. Further, the minimal inhibitory concentration (MIC) in the assay on Salmonella enteritidis came out at 12.5 mg/L (≈ 17.1 µM); with Acinetobacter baumannii it was 25 mg/L (≈ 34.2 µM); in assay [16], 25 mg/L (≈ 34.2 µM); in the assay with Burkholderia multivorans it was 50 mg/L (≈ 68.3 µM).
Regarding `CCn1cc(C(=O)O)c(=O)c2ccc(C)nc21`, the inhibition entry with Bacillus subtilis [17], with Bacillus subtilis [18], in the assay with Bacillus subtilis [19], in the assay on Bacillus subtilis [20] and in the assay with Bacillus subtilis [21] was “Active” in each case.

Values taken from ChEMBL document CHEMBL4038308, “Lipophosphonoxins II: Design, Synthesis, and Properties of Novel Broad Spectrum Antibacterial Agents” (J Med Chem, 2017).
